Laboratory results taken from US12133527B2, “Insect and tick repellent formulations and methods of use thereof” (priority 2017, dated 2024).

Key:
skin of human subjects = experiment: Human repeat insult patch test for skin irritation and sensitization; assay type: in vivo; settings: positive control
Description: To determine the irritation and sensitization (contact allergy) potential of a test material after repeated application to the skin of human subjects three studies were conducted using the formulations of the invention comprising 2-undecanone, soybean oil, polysorbate 20, sorbitan oleate, oil of lemon eucalyptus and denatured alcohol (e.g., test materials).
Test materials to be tested under occlusive conditions were placed on an 8-millimeter aluminum Finn Chamber® (Epitest Ltd. Oy, Tuusula, Finland) supported on Scanpor® Tape (Norgesplaster A/S, Kristiansand, Norway) or an 8 mm filter paper coated aluminum Finn Chamber® AQUA supported on a thin flexible transparent polyurethane rectangular film coated on one side with a medical grade acrylic adhesive, consistent with adhesive used in state-of the-art hypoallergenic surgical tapes or a 7 mm IQ-ULTRA® closed cell system which is made of additive-free polyethylene plastic foam with a filter paper incorporated (It is supplied in units of 10 chambers on a hypoallergenic nonwoven adhesive tape; the width of the tape is 52 mm and the length is 118 mm) or other equivalents. Materials to be tested under semi-occlusive conditions were placed on a test strip with a Rayon/Polypropylene pad or on a 7.5 mm filter paper disc affixed to a strip of hypoallergenic tape (Johnson & Johnson 1 inch First Aid Cloth Tape).
Test materials to be tested in an open patch were applied and rubbed directly onto the back of the subject. Approximately 0.02-0.05 mL (in case of liquids) and/or 0.02-0.05 gm (in case of solids) of the test material was used for the studies. Liquid test material was dispensed on a 7.5 mm paper disk, which fit in the Finn Chamber.
Subjects were requested to bathe or wash as usual before arrival at the facility. Patches containing the test material were then affixed directly to the skin of the intrascapular regions of the back, to the right or left of the midline and subjects were dismissed with instructions not to wet or expose the test area to direct sunlight. Patches remained in place for 48 hours after the first application. Subjects were instructed not to remove the patches prior to their 48 hour scheduled visit. Thereafter, subjects were instructed to remove patches 24 hours after application for the remainder of the study.
This procedure was repeated until a series of nine (9) consecutive, 24-hour exposures had been made three (3) times a week for three (3) consecutive weeks. Prior to each reapplication, the test sites were evaluated by trained laboratory personnel. Following a 10-14 day rest period a retest/challenge dose was applied once to a previously unexposed test site.
Test sites were evaluated by trained laboratory personnel 48 and 96 hours after application.
In the event of an adverse reaction, the area of erythema and edema were measured. Edema was estimated by the evaluation of the skin with respect to the contour of the unaffected normal skin. Subjects were instructed to report any delayed reactions that might occur after the final reading.
Scoring scale and definition of symbols shown below are based on the scoring scheme according to the International Contact Dermatitis Research Group scoring scale [Rietschel, R. L., Fowler, J. F., Ed., Fisher's Contact Dermatitis (fourth ed.). […]

insect or tick = experiment: Duration of repellency of 2-undecanone alone (statement, no method); settings: unformulated

Compound | subjects with a Grade 1 delayed reaction (skin of human subjects; Study I) [subjects] | subjects with a Grade 1 reaction (skin of human subjects; Study I) [subjects] | subjects with a Grade 1 reaction (skin of human subjects; Study II) [subjects] | subjects with Grade 1 reaction (skin of human subjects; Study III) | subjects with Grade 2 reaction (skin of human subjects; Study III) | duration of repellency (insect or tick)
CCCCCCCCCCCCOS(=O)(=O)[O-].[Na+] [2.0% Sodium Lauryl Sulfate Solution, Sodium Lauryl Sulfate] | 4 | 35 | 10 | Two | two | 
CCCCCCCCCC(C)=O [Soybean 2-undecanone, 2-undecanone] |  |  |  |  |  | less than 30 min
